Data: patent publication US6911465B1, “Anti-inflammatory indole derivatives” (AstraZeneca AB, priority 1999, dated 2005)
Like-named read-outs stand apart in the source and are kept apart here.

Legend:
[1] = molecular target: T1, MCP-1 receptor B (CCR2B) (Homo sapiens, UniProt P41597); assay: hMCP-1 receptor binding assay (125I-MCP-1, CHO-CCR2B cell membranes)
T1 construct: expressed in transfected cells; membrane fragments
T1 sequence (P41597 1-360 isoform P41597-2): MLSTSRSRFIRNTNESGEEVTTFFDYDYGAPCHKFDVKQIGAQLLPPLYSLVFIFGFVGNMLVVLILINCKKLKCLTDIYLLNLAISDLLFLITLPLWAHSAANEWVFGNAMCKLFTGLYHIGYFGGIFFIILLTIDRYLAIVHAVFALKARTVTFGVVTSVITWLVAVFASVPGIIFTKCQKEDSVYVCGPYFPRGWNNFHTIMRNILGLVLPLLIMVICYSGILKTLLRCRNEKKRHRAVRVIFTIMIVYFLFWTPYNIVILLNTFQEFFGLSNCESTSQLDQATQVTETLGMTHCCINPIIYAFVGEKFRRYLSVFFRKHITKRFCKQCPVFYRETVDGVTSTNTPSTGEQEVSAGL
Excerpt: The MCP-1 receptor B (CCR2B) cDNA was cloned by PCR from THP-1 cell RNA using suitable oligonucleotide primers based on the published MCP-1 receptor sequences (Charo et al., 1994, Proc. Natl. Acad. Sci USA, 91, 2752). The resulting PCR products were cloned into vector PCR-II™ (In Vitrogen, San Diego, Calif.). Error free CCR2B cDNA was subcloned as a Hind III-Not I fragment into the eukaryotic expression vector pCDNA3 (In Vitrogen) to generate pCDNA3/CC-CKR2A and pCDNA3/CCR2B respectively.
Linearised pCDNA3/CCR2B DNA was transfected into CHO-K1 cells by calcium phosphate precipitation (Wigler et al., 1979, Cell, 16, 777). Transfected cells were selected by the addition of Geneticin Sulphate (G418, Gibco BRL) at 1 mg/mlo, 24 hours after the cells had been transfected. Preparation of RNA and Norther Blotting were carried out as described previously (Needham et al., 1995, Prot. Express. Purific., 6, 134). CHO-K1 clone 7 (CHO-CCR2B) was identified as the highest MCP-1 receptor B-expressor. […]
^125I MCP-1 was preapred using Bolton and Hunter conjugation (Bolton et al., 1973, Biochem. J., 133, 529; Amersham International plc]. Equilibrium binding assays were carried out using the method of Ernst et al., 1994, J. Immunol., 152, 3541. Briefly, varying amounts of ^125I-labeled MCP-1 were added to 7 μg of purified CHO-CCR2B cell membranes in 100 μl of Binding Buffer. After 1 hour incubation at room temperature the binding reaction mixtures wre filtered and washed 5 times through a plate washer (Brandel MLR-96T Cell Harvester) using ice cold Binding Buffer. Filter mats (Brandel GF/B) were pre-soaked for 60 minutes in 0.3% polyethyleneimine prior to use. Following filtration individual filters were separated into 3.5 ml tubes (Sarsted No. 55.484) and bound ^125I-labeled MCP-1 was determined (LKB 1277 Gammamaster). […] Non-specific binding was determined by the incinsion of a 200-fold molar excess of unlabelled MCP-1 in the reaction. […]

[2] = system: THP-1 cells; assay: MCP-1 mediated calcium flux in THP-1 cells; assay type: cell-based, human; details: stimulation of THP-1 cells, FURA-2, approximate; read-out: EC50 for rise in [Ca2+]i
Description: The human monocytic cell line THP-1 was grown in a synthetic cell culture medium RPMI 1640 supplemented with 10% foetal calf serum, 6 mM glutamine and Penicillin-Streptomycin (at 50 μg streptomycin/ml, Gibco BRL). THP-1 cells were washed in HBSS (lacking Ca^2+ and Mg^2+)+1 mg/ml BSA and resuspending in the same buffer at a density of 3×10^6 cells/ml. The cells were then loaded with […] FURA-2/AM for 30 min at 37° C., washed twice in HBSS, and resuspended in 1×10^6 cells/ml. THP-1 cell suspension (0.9 ml) was added to a 5 ml disposable curvette containing a magnetic stirrer bar and 2.1 ml of prewarmed (37° C.) HBSS containing 1 mg/ml BSA, 1 mM MgCl2 and 2 mM CaCl2. The cuvette was placed in a fluorescence spectrophootmeter (Perkin Elmer, Norwalk, Conn.) and preincubated for 4 min at 37° C. with stirring. Fluorescence was recorded over 70 sec and cells wre stimulated by addition of hMCP-1 to the curvette after 10 sec. [Ca^2+]i was measured by excitation at 340 nm and 380 nm alternately and subsequent measurement of the intensity of the fluorescence emission at 510 nm. […] Rmax is the maximal fluorescence ratio determined after additional of […] lonomycin, […] ratio determined by the subsequent addition of a Ca^2+ free solution containing 5 mM EGTA, and Sf2/Sb2 is the ratio of fluorescence values at 380 nm excitation determined at Rmin and Rmax, respectively. […]

[3] = system: THP-1 cells; assay: hMCP-1 mediated chemotaxis of THP-1 cells; assay type: cell-based, human; details: biphasic response
Description: In vitro chemotaxis assays were performed using the human monocytic cell line THP-1. Cell migration through polycarbonate membranes was measured by enumerating those passing through either directly by Coulter counting or indirectly by use of a colourimetric viability assay measuring the cleavage of a tetrazolium salt by the microchondrial respiratory chain (Scudiero D. A. et al. 1988, Cancer Res., 48, 4827-4833).
Chemoattractants were introduced into a 96-well microtiter plate which forms the lower well of a chemotaxis chamber fitted with a PVP-free 5 μm poresize polycarbonate adhesive framed filter membrane (NeuroProbe MB series, Cabin John, MD 20818, USA) according to the manufacturer's instructions. […] The plate was incubated at 37° C. for 3 h and the absorbance of the soluble formazan product was read on a microtiter plate reader at 450 nm. The data was input into a spreadsheet, corrected for any random migration in the absence of chemoattractant and the average absorbance values, standard error of the mean, and significance tests were calculated. hMCP-1 induced concentration dependent cell migration with a characteristic biphasic response, maximal […].

Compound: O=C(CN1CCOCC1)Nc1cccc2c1cc(C(=O)O)n2Cc1ccc(Cl)c(Cl)c1 [Compound 2]
- IC50 ([1]; competition with 100 pM labelled MCP-1, CHO-CCR2B membranes, 0.01-50 μM, read-out: IC50 in hMCP-1 receptor binding assay): 1700 nM

Compound: MCP-1: Human Monocyte Chemoattractant Protein-1, the chemokine ligand of the CCR2 receptor
- IC50 ([1]; cold competition, unlabelled MCP-1 vs 100 pM 125I-MCP-1, CHO-CCR2B membrane fragments, read-out: IC50 of MCP-1 binding to CCR2B): 0.11 nM
- Kd ([1]; equilibrium binding, CHO-CCR2B membrane fragments): 0.12 nM
- EC50 [2]: ~2 nM
- concentration of maximal cell migration [3]: 0.5-1.0 nm
